This assay concerns PCA reaction. Nature of the assay: passive cutaneous anaphylaxis (PCA) procedure. It counts as in vivo, male rats. The following applies: for % Inhibition: rats, 30 minutes prior to challenge. On the procedure: In this procedure, male rats, between 180 and 200 grams in weight are passively sensitized forty-eight or seventy-two hours prior to test with rat sera containing reagintype antibodies. These sera are injected intradermally in four separate sites, two on each side of the ventral midline. Dose volume is 0.1 ml.
On the test-day animals receive drug or vehicle (placebo) 30 minutes prior to challenge. Test compounds are given i.p. on an mg/kg basis; usual volume is 0.5 ml/100 g body weight. Controls receive the vehicle, on the same weight-volume basis.
The challenging dose of 1.0 ml of Antigen-Evans Blue is administered i.v. This is prepared from either Ovalbumin or dinitrophenylated bovine gamma globulin, 10 mg, together with 5 ml of 0.5% Evans Blue, U.S.P., and 5 ml of normal saline. At 30 minutes after challenge each rat is sacrificed. A section of skin that includes the four sensitizing injection sites is removed.
Reaction is indicated by a blue coloration of the site and scored on the basis of color intensity. Size of the site is also reported.
Data is reported as the arithmetic mean score of a specific site for that group of five animals; the size of the spot is also reported as the mean for the group.
The relation between dilution of antibody and mean spot diameters approximates a straight line which is constructed by the method of least squares for the control animals. The maximum antibody concentration is set as "100% reactivity", with the extrapolated "zero" antibody concentration being 0%. Using this line the diameter at the highest antibody concentrations in any treated group is expressed as a percent of the control, i.e. "% inhibition." The treatment is judged "active" if the inhibition is 50% or greater.

As to `Cn1c2ccccc2c2oc(C(=O)O)cc(=O)c21` [Example 5, 4,5-dihydro-5-methyl-4-oxopyrano[3,2-b]indole-2-carboxylic acid], the “% Inhibition” value (1.0 mg/kg I.P.) came to 30%, the “% Inhibition” value (5.0 mg/kg I.P.) was 100%, the “% Inhibition” value (10.0 mg/kg I.P.) worked out at 100% and the “% Inhibition” value (25.0 mg/kg I.P.) is 100%. Moreover, the “antiallergic activity in passive cutaneous anaphylaxis” value (male rats, i.p. 30 minutes prior to challenge) is recorded as “highly effective as an antiallergic”.

The record behind these values is patent publication US4028383A, “Indolopyrones having antiallergic activity” (Warner-Lambert Company, priority 1975, dated 1977).
